Where two headings read alike, the source gives them in different places.
Assays:
[1] = test system: mouse eye; details: in vivo
Experimental: In order to evaluate the penetrating ability for the cornea, the cornea was subjected to immunofluorescence staining at different time points to observe the penetrating ability. Samples were taken 5 min, 15 min, 30 min, and 60 min after the drug with perfluoroheptanoic acid-modified chitosan was applied. Frozen sections were prepared, and the nuclei of the sections were stained and observed under a confocal microscope as shown in FIG. 4-7. Herein, the red is the fluorescence of the protein label, and the blue is the nucleus of the eye tissue.

[2] = test system: abdomen skin of mice; details: 1 mg/mL, first three hours
Experimental: In vitro diffusion cell construction: the abdomen skin of mice was removed, the fat layer was shaved off, and the skin was fixed on a diffusion cell. 7.5 mL PBS was added to the diffusion cell below the skin, and 0.75 mL perfluoroheptanoic acid-modified chitosan-tranexamic acid and the same concentration of pure tranexamic acid solution were respectively added to the diffusion cell above the skin.
Measurement of tranexamic acid penetration rate: 500 μL of PBS was removed from the bottom of the diffusion cell at 0, 1, and 3 h and the same volume of PBS was supplemented. The content of tranexamic acid was detected under the following HPLC conditions: methanol and 0.05 mol/L KH2PO4-0. 2% H3PO4 solution (volume ratio 5:95) as mobile phase, flow rate 1.0 mL/min, and detection wavelength 210 nm, and the cumulative penetration was calculated.

[3] = test system: C57BL/6 mice; details: mouse, in vivo
Experimental: Experimental designers used adriamycin, epirubicin (THP) and fluorescent dye rhodamine B as a bladder perfusion drug respectively to mix with chitosan (1% acetic acid aqueous solution) to prepare chitosan bladder perfusion drug systems. After 1 h of bladder perfusion, the bladder tissue was removed, frozen sections were prepared, the fluorescence intensity of the drug was analyzed with a confocal fluorescence microscope, and the distribution of the drug in the bladder tissue was investigated. […] In order to further investigate the biological safety of chitosan as a drug carrier for perfusion, the designers of the project perfused the mouse bladder with a 15 mg/ml chitosan aqueous solution, stopped the perfusion after 1 h, continued to raise the mice under normal feeding conditions, and recorded the mice weight. […] After dissection, the bladder of the mice in the experimental group was compared with that of the mice in the control group.
Healthy C57BL/6 mice aged 10-12 weeks were divided into three groups, 8 mice/each group. The experimental group was perfused with 15 mg/ml fluorinated chitosan or 1% chitosan in aqueous acetic acid solution for 1 h, once a week for three weeks, and the blank control group was perfused with equal volume of double distilled water. […]

[4] = test system: Balb/c mice
Description: Balb/c mice at week 6 in the hair prohibition period were selected, and on the day before treatment, the mice in the perfluoroheptanoic acid-modified chitosan-metformin group, free metformin group, and blank control group were removed of the equivalent hair on the back and photographed as shown in the figure. Each mouse was uniformly sprayed with the drug according to its own treatment method, and the drug was given once every two days, 100 microliters each time.

Compound: free protein: bovine serum albumin labeled Cy5.5 without fluorine-containing chitosan
- penetration into the corneal epithelial cells [1]: substantially does not enter

Compound: NC[C@H]1CC[C@H](C(=O)O)CC1 [pure tranexamic acid, tranexamic acid]
- cumulative penetration of tranexamic acid [2]: substantially does not penetrate

Compound: chitosan
- bladder HE staining and CD45 and Ki67 immunofluorescence [3]: severe inflammatory stress and congestion and edema
- bladder HE staining and CD45 and Ki67 immunofluorescence, mucosal and epithelial damage [3]: severe inflammatory stress and congestion and edema

Compound: CN(C)C(=N)N=C(N)N [Metformin, metformin]
- hair growth on the back ([4]; Day 0): No hair
- hair growth on the back ([4]; Day 11): No hair
- hair growth on the back ([4]; Day 13): No hair
- hair growth on the back ([4]; Day 17): No hair

Reference: patent US20220273806A1, “USE OF FLUORINE-CONTAINING COMPOUND-MODIFIED CATIONIC POLYMER AS DRUG CARRIER AND PREPARATION METHOD” (SOOCHOW UNIVERSITY, priority 2020, published 2022)
